Earlier results, collected in patent US7163702B1 (priority 2004, dated 2007).

Settings: human, in vivo

N=C(N)c1ccc(OCCCCCOc2ccc(C(=N)N)cc2)cc1 [pentamidine]
incidence of adverse reactions: around 50%
